Reference: patent US12358954B2, “Capsid-modified rAAV vector compositions and methods therefor” (priority 2012, dated 2025)

Columns and labels:
[1] = tested on: primary human dendritic cells; assay: AAV-EGFP transduction of primary human dendritic cells with NF-κB modulators (flow cytometry); format: cell-based; settings: scAAV-transduced DCs treated with cytokines; Bay11 row: cytokines plus Bay11
Procedure: Recombinant AAV Vector Transduction Assays in Vitro. Optimal concentration of NF-κB-modulating compounds was determined by a cell viability assay with tenfold-dilutions from the IC50 or were used as described previously (Wu and Miyamoto, 2008; Kumar et al., 2008). VP16 or Bay11 (10 or 5 μM, final concentration), and PDTC (50 or 25 μM final concentration) were used either alone or in activator/inhibitor combinations. For transduction experiments, approximately 1×10^5 HeLa cells were either pre-treated with these compounds 24 hrs prior to vector infection. Cells were transduced with 500 or 2,000 vector genomes (vgs) per cell of recombinant WT-AAV or TM-AAV vectors encoding the EGFP transgene as described previously (Markusic et al., 2010). After 7 days of culture, primary human dendritic cells were transduced with AAV vectors at 2000 vgs/cell and incubated for 48 hrs. Transgene expression was assessed as total area of green fluorescence (pixel^2) per visual field (mean±SD), or by flow cytometry. Analysis of variance (ANOVA) was used to compare between test results and the control and they were determined to be statistically significant.
Cells, Antibodies and Chemicals. […]

[2] = tested on: primary human dendritic cells; assay: FACS analyses of markers of maturation (CD83, CD86) of primary human dendritic cells; format: cell-based
Procedure: Cells, Antibodies and Chemicals. HeLa cells were obtained from the American Type Culture Collection (Rockville, Md., USA) and maintained as monolayer cultures in Iscove's-modified Dulbecco's medium (IMDM, Invitrogen, Inc., Carlsbad, Calif., USA) supplemented with 10% newborn calf serum (NCS) (Lonza, Inc., Basel, SWITZERLAND) and antibiotics. Leukapheresis-derived PBMCs were resuspended in serum-free AIM-V medium (Lonza, Inc.) and semi-adherent cell fractions were incubated in serum-free AIM-V medium supplemented with recombinant human IL-4 (500 U/mL) and GM-CSF (800 U/mL) (R&D Systems, MN, USA). Cells were treated with NF-κB modulators ([…]), and cytokines cocktail including 10 ng/mL TNF-α, 10 ng/mL IL-1, 10 ng/mL IL-6, […] (R&D Systems) for 20 hr. Cells were harvested, characterized to ensure they met the typical phenotype of mature DCs (CD83, RPE, murine IgG1, CD86, FITC, murine IgG1; Invitrogen, Inc.). All primary and secondary antibodies were purchased from Cell Signaling Technology, Inc. (Danvers, Mass., USA) or Santa Cruz Biotechnology, Inc (Santa Cruz, Calif., USA). NF-kB activators [Etoposide (VP16), Aphidicolin, Hydroxyurea (HU)] and NF-kB inhibitors [Bay11-7082 (Bay11), Pyrrolidine dithiocarbamate (PDTC)] were purchased from Sigma-Aldrich Co. (St. Louis, Mo., USA). These compounds were re-suspended in either DMSO (Sigma-Aldrich Co.) or in sterile, DNAase-, RNAase-free water (Invitrogen, Inc.) as per the manufacturer's instructions.

anti-AAV2 IgG2a = assay: Anti-AAV2 IgG2a levels in peripheral blood; format: in vivo, mice; settings: day 10
Procedure: Anti-AAV2 IgG2a levels were determined in peripheral blood from mice at day 10 following injections with scAAV vectors, with and without prior administration of Bay11 (n=4 each);
Inhibition of NF-κB Activation Leads to Suppression of Pro-Inflammatory Cytokine Production Prior to AAV Vector-Mediated Gene Transfer in Mice in Vivo. In in vivo studies, a single dose of Bay11 at 20 mg/kg body weight was administered intra-peritoneally (i.p.) 12 hrs prior to vector administration in C57BL/6 mice. Transcript levels from liver homogenates of innate immune mediators (FIG. 3A) or for activation of NF-κB (FIG. 3B) genes were measured from Bay11- and vector-injected groups and compared with sham-injected mice. […] The up-regulation of type I interferon expression by both wild-type (WT-AAV) and TM-AAV vectors was unaffected by Bay11 (FIG. 8A, FIG. 8B, FIG. 8C, FIG. 8D, FIG. 8E, and FIG. 8F).

[3] = Mature DCs + AAV + Cytokines + modulator

**Q.** `Cc1ccc(S(=O)(=O)/C=C/C#N)cc1` [Bay11, Bay11-7082] was tested. Which “transgene expression in DCs” value [1] did it give?
**A.** ~12%

**Q.** And the “maturation of DCs (CD83, CD86)” value [2]?
**A.** inhibition of cytokine-mediated maturation

**Q.** What about the “Geometric means of levels of expression in cells expressing CD83” value [2, 3] of the same compound?
**A.** 16.88

**Q.** And the “Geometric means of levels of expression in cells expressing CD86” value [2, 3]?
**A.** 10.11

**Q.** And the anti-AAV2 antibody response (anti-AAV2 IgG2a)?
**A.** significantly reduced
